Measurements as given in patent US20240182862A1, “METHOD FOR PRODUCING MESENCHYMAL STEM CELLS” (AJINOMOTO CO., INC., priority 2021, published 2024).

How the values were obtained:
[1] = tested on: iNCC (iPS cell-derived neural crest cell); assay: Differentiation induction from iNCC into iMSC, surface antigen analysis using FACS; type: cell-based, human
Protocol: The obtained iNCCs (iPSC-derived NCCs) were seeded at a density of 5.0×10^3 cells/well into a 6-well plate coated with vitronectin-N (Thermo Fisher Scientific) at a density of 1.5 μg/cm^2 and cultured under 37° C., 5% CO2 conditions for […] using the following differentiation medium (T3 medium) to induce iMSCs (iPSC-derived MSCs).
T3 medium: StemFit (registered trademark) For Mesenchymal Stem Cells (Ajinomoto Co., Inc.), 90 nM Dexamethasone (Sigma-Aldrich) […]
iMSC was induced according to Example 1, except that 100 nM Dexamethasone, 100 nM betamethasone, 100 nM predonisolone, 666 nM predonisolone were used.
Regarding the induced iMSC, surface antigen analysis of 4 types of MSC positive markers (CD90, CD44, CD73, CD105), 1 type of NCC positive marker (MSC micro-positive marker) (CD271), and two types of MSC negative markers (CD45 and CD34) was performed using FACS.

[2] = tested on: TSG-6 (TNFAIP6); assay: Gene expression of TSG-6 (TNFAIP6) after IFNγ stimulation, Real-Time PCR; type: cell-based, human; conditions: iMSC induced by adding 50 nM to 10 μM Dexamethasone, 18 days; 50 ng/mL IFNγ for 48 hr; FIG. 3
Protocol: iNCCs were seeded at a density of 5.0×10^3 cells/well into a 6-well plate coated with vitronectin-N at a density of 1.5 μg/cm^2, and cultured under 37° C., 5% CO2 conditions for 16 days using T3 medium to induce iMSCs.
After 16 days from the start of induction, 50 ng/mL IFNγ (R&D Systems) was added to T3 medium to stimulate for 48 hr. After stimulation, RNA was purified according to the protocol of PureLink (trademark) RNA Mini Kit (Thermo Fisher Scientific) and, after reverse transcription, gene expression of TSG-6 (TNFAIP6), a therapeutic marker for inflammatory diseases, was analyzed using Real-Time PCR. As comparison targets, iNCC-derived iMSC induced to differentiate in αMEM medium containing 10% FBS, and two lots of living bone marrow-derived MSC (BMMSC) (Lonza or RoosterBio) cultured in T3 medium for 12 to 16 days were used (Table 2).
iNCCs were seeded at a density of 3.0×10^4 cells/well into a 6-well plate coated with vitronectin-N at a density of 1.5 μg/cm^2, and cultured under 37° C., 5% CO2 conditions using StemFit (registered trademark) For Mesenchymal Stem Cells supplemented with 50 nM, 100 nM, 1 μM, 10 μM, 50 μM Dexamethasone to induce iMSCs. […] After stimulation, RNA was purified and, after reverse transcription, gene expression of TNFAIP6 was analyzed using Real-Time PCR.

[3] = tested on: iNCC; assay: Cell proliferation curve during differentiation induction; type: cell-based, human; conditions: group added with 50 μM; FIG. 2
[4] = Titer of corticosteroid as glucocorticoid; conditions: titer as glucocorticoid taken for the converted concentrations of the Examples
[5] = when hydrocortisone is set to 1; cited from earlier work
[6] = tested on: LX-2 Human Hepatic Stellate Cell Line; assay: Antifibrotic action of secretome: RT-PCR of fibrosis marker genes COL1A1 and ACTA2 in LX-2 cells; type: cell-based; conditions: effect of TGF-β1 stimulation itself (10 ng/mL)
Protocol: LX-2 Human Hepatic Stellate Cell Line (EDM Millipore, hereinafter LX-2 cells) was cultured in a DMEM high Glucose (Life Technologies) medium supplemented with 10% FBS (Gibco), 1% penicillin-streptomycin (Nacalai), and 2 mM Glutamine (Gibco). On the fourth passage, 4×10^4 cells were seeded into each well of a 12-well plate. After 2 days of culture, the medium was replaced with a medium in which concentrated secretome obtained from iMSC was added at a concentration of 1× to a medium supplemented with 10 ng/mL TGF-β1 (Peprotech), and the culture was continued. On the second day after replacing the medium, cells were detached with Accutase (Thermo Fisher), and after collection, RNA was extracted and purified using Maxwell (registered trademark) 16 LEV simplyRNA Purification Kits (Promega), and reverse transcription was performed using PrimeScript™ RT Master Mix (Takara). RT-PCR was performed on the synthesized cDNA using the primers of TaqMan (registered trademark) Gene Expression Assays shown in Table 5.

[7] = StemFit For MSC + 100 nM corticosteroid
[8] = StemFit For MSC + 666 nM corticosteroid

Compound | CD34 (MSC negative marker) FACS [1, 7] [%] | CD44 (MSC positive marker) FACS [1, 7] [%] | CD45 (MSC negative marker) FACS [1, 7] [%] | CD73 (MSC positive marker) FACS [1, 7] [%] | CD90 (MSC positive marker) FACS [1, 7] [%] | CD105 (MSC positive marker) FACS [1, 7] [%] | CD271 (NCC positive, MSC micro-positive marker) FACS [1, 7] [%] | titer of corticosteroid as glucocorticoid [5] | further results
C[C@H]1C[C@H]2[C@@H]3CCC4=CC(=O)C=C[C@]4(C)[C@@]3(F)[C@@H](O)C[C@]2(C)[C@@]1(O)C(=O)CO [Betamethasone] | 8.12 | 99.60 | 0.88 | 97.86 | 98.96 | 95.34 | 34.14 |  | 
C[C@@H]1C[C@H]2[C@@H]3CCC4=CC(=O)C=C[C@]4(C)[C@@]3(F)[C@@H](O)C[C@]2(C)[C@@]1(O)C(=O)CO [Dexamethasone, Pregna-1,4-diene-3,20-dione,9-fluoro-11,17,21-trihydroxy-16-methyl-, (11β,16α)-] | 10.52 | 99.26 | 0.64 | 97.82 | 99.22 | 96.36 | 23.42 |  | gene expression of TSG-6 by IFNγ stimulation [2]: significantly increased; proliferation of cells during differentiation induction [3]: stopped after day 13; titer used to convert concentrations [4]: 26.66
C[C@]12C=CC(=O)C=C1CC[C@@H]1[C@@H]2[C@@H](O)C[C@@]2(C)[C@H]1CC[C@]2(O)C(=O)CO [Prednisolone] | 9.22 | 99.60 | 0.56 | 96.38 | 98.99 | 93.32 | 56.94 | 4 | effect in promoting differentiation ([1]; 666 nM, titer as glycocorticoid aligned): effective in promoting differentiation; CD34 (MSC negative marker) FACS [1, 8]: 9.86%; CD44 (MSC positive marker) FACS [1, 8]: 99.70%; CD45 (MSC negative marker) FACS [1, 8]: 0.88%; CD73 (MSC positive marker) FACS [1, 8]: 97.38%; CD90 (MSC positive marker) FACS [1, 8]: 99.18%; CD105 (MSC positive marker) FACS [1, 8]: 95.28%; CD271 (NCC positive, MSC micro-positive marker) FACS [1, 8]: 41.02%; effect in promoting differentiation ([1]; added at 100 nM): limited effect; titer used to convert concentrations [4]: 4
C[C@]12CCC(=O)C=C1CC[C@@H]1[C@@H]2C(=O)C[C@@]2(C)[C@H]1CC[C@]2(O)C(=O)CO [cortisone] |  |  |  |  |  |  |  | 0.8 | 
C[C@@H]1C[C@H]2[C@@H]3C[C@H](F)C4=CC(=O)C=C[C@]4(C)[C@H]3[C@@H](O)C[C@]2(C)[C@@]1(O)C(=O)CO [paramethasone] |  |  |  |  |  |  |  | 10 | 
C[C@]12C=CC(=O)C=C1CC[C@H]1[C@@H]3C[C@@H](O)[C@](O)(C(=O)CO)[C@@]3(C)C[C@H](O)[C@@]12F [triamcinolone] |  |  |  |  |  |  |  | 5 | 
TGF-β1: TGF-β1 (Peprotech), 10 ng/mL stimulus of LX-2 cells |  |  |  |  |  |  |  |  | ACTA2 expression [6]: markedly increased; COL1A1 expression [6]: markedly increased
